Laboratory results reported in patent publication US20240180999A1, “EZRIN PEPTIDE 1 FOR USE IN A METHOD OF TREATING POST COVID-19” (priority 2021, published 2024).
No end group written: not given here.

Legend:
LONG-COVID-19 symptoms = test: Treatment of patients suffering from post-COVID-19 syndrome (long COVID) with daily s.c. injection of HEP-1, single case reports; format: in vivo, human
[1] = Toxicity at high dosages (general statement); format: in vivo; conditions: high dosages of 50 mg per kg of body weight per day or higher
Procedure: The dosage of Ezrin peptide 1 and its analogues of the formula (I) is not particularly critical, as Ezrin peptide 1 and its analogues are not toxic even at high dosages of 50 mg per kg of body weight per day or higher. Preferably, Ezrin peptide 1 and its analogues are administered to an adult human in an amount of at least 0.05 milligrams per day (mg/d), in particular at least 0.1 mg/d, e.g. in an amount of 0.05 to 5 mg/d, in particular 0.1 to 2 mg/d or 0.1 to 1 mg/d or 0.1 to 0.5 mg/d. Typically, for parenteral administrations lower dosages will be required than for oral or rectal administration. To achieve a rapid relief of the symptoms of post-COVID-19 syndrome, it may also be reasonable to administer at least 0.5 mg per day or at least 1 mg per day, e.g. in the range of 0.5 to 5 mg/d, but in other cases a lower dosage may be suitable. It is also possible to start with a higher dosage, e. g. in the range of 0.5 to 5 mg/d, more preferably 0.5 to 3 mg/d and then continue with a lower dosage of e.g. 0.05 to 0.5 mg/d or 0.1 to 0.5 mg/day. A single administration of Ezrin peptide 1 and/or one of its analogues of the formula (I) may be sufficient to ameliorate or even cure the symptoms of a post-COVID-19 syndrome. […] Depending on the severity of the symptoms, this time period is typically in the range of 5 days to 10 weeks and in particular in the range of 10 days to 8 weeks.

cell cultures = conditions: R. Ataullakhanov et al. 2005; cited from earlier work
[2] = test system: inflammatory cytokine production; conditions: cell cultures; cited from earlier work

TEKKRRETVEREKE [HEP-1, NH2_Thr-Glu-Lys-Lys-Arg-Arg-Glu-Thr-Val-Glu-Arg-Glu-Lys-Glu_COOH]
final clinical outcome of long COVID (LONG-COVID-19 symptoms; Example 1, person, HEP-1 0.2 mg s.c. per day 22 Jan. 2021 until Mar. 10 2021, assessed 10 Mar. 2021): complete recovery | mental ability (short memory) and physical strength (walking distance), interim outcome (LONG-COVID-19 symptoms; Example 1, person, HEP-1 0.2 mg s.c. per day from 22 Jan. 2021, assessed 29 Jan. 2021): remarkable improvement | mental ability (short memory) and physical strength (walking distance), interim outcome (LONG-COVID-19 symptoms; Example 2, person, ankylosis spondylitis, HEP-1 0.2 mg s.c. per day from 26 Feb. 2021, assessed 4 Mar. 2021): remarkable improvement | final clinical outcome of long COVID (LONG-COVID-19 symptoms; Example 2, person, HEP-1 0.2 mg s.c. per day 26 Feb. 2021 until Mar. 17 2021, assessed 17 Mar. 2021): complete recovery | final clinical outcome of long COVID (LONG-COVID-19 symptoms; Example 3, person, HEP-1 0.2 mg s.c. per day 29 Mar. 2021 until Apr. 24 2021, assessed 23 Apr. 2021): complete recovery | mental ability (short memory) and physical strength (walking distance), interim outcome (LONG-COVID-19 symptoms; Example 3, person, HEP-1 0.2 mg s.c. per day from 29 Mar. 2021, assessed 15 Apr. 2021): remarkable improvement | final clinical outcome of long COVID (persisting fatigue syndrome) (LONG-COVID-19 symptoms; Example 4, person, HEP-1 0.2 mg s.c. per day for 10 days): free of any symptoms | final clinical outcome of long COVID (fatigue syndrome and cognitive disorder) (LONG-COVID-19 symptoms; Example 5, person, HEP-1 0.2 mg s.c. per day from 26 Feb. 2021, assessed 12 Mar. 2021): free of any symptoms | final clinical outcome of long COVID (LONG-COVID-19 symptoms; Example 6, person, asthma, HEP-1 2 mg s.c. per day for 10 days, then 0.2 mg s.c. per day for 30 days, after 3 weeks of treatment): cured | final clinical outcome of long COVID (fatigue, cognitive disorder, narcolepsy) (LONG-COVID-19 symptoms; Example 7, person, HEP-1 0.2 mg s.c. per day, after 11 days of treatment): symptoms completely disappeared | toxicity [1]: not toxic | anti-viral effect in cell cultures (cell cultures): shows an anti-viral effect | production of pro- and inflammatory cytokins (e.g. IL-1, IL-6, TNF-alpha) [2]: reduces | synthesis of alpha- and beta interferons [2]: induces
